Legend:
[1] = test system: Shrimp (L. vannamei) larvae; assay: Acute toxicity assay in shrimp larvae; format: in vivo, Litopenaeus vannamei; settings: after 72 h of exposure
Method: Shrimp (L. vannamei) larvae (total length: 0.5 ± 0.04 cm, body weight: 4.2 ± 0.4 mg, mean ± SD) were provided by Zhejiang Mariculture Research Institute Qingjiang Station (Wenzhou, China). The larvae were maintained in a culture pond at 28 °C, fed four times a day with commercial feed pellets, and collected randomly for PCR testing to verify the WSSV-free status prior to the trial.
Acute toxicity of the coumarin derivatives was investigated by exposing larvae to a range of compound concentrations, from 0.1 mg/L to 100 mg/L of coumarin derivatives, where the dose setting was based on the data from preliminary tests in our laboratory. A DMSO-control (2%, v/v, the highest percentage of DMSO in treatments) served as the control. During the experiment, every 20 larvae were moved into six-well plates filled with 6 mL/per well freshly prepared test solutions for a 72-h incubation at 28 °C with a natural photoperiod. […] To avoid deterioration of water quality, dead shrimps were immediately removed at the point of observation. Three replicate experiments were performed.
Compound response curves were represented by a logistic sigmoidal function with a maximal effect level (Amax) and Hill coefficient representing the sigmoidal transition (Origin 8.1; http://www.originlab.com, accessed on 25 March 2021). Statistical analyses were performed using SPSS (version 18.0) statistical software (SPSS Inc., Chicago, IL, USA). The LC50 and EC50 values with 95% CIs were calculated using probit analysis. Virus titers were log10-transformed prior to statistical analyses. Unpaired Student’s t-tests were used to compare coumarin-treated samples and negative-control DMSO samples for determining significance and data are presented as mean values ± SD.

[2] = test system: white spot syndrome virus (WSSV); assay: Anti-WSSV activity in shrimp larvae, co-incubation, copy number of viral genome by RT-qPCR; format: in vivo, Litopenaeus vannamei
[3] = Solubility / precipitation in aquacultural water; format: physicochemical
Method: Prior to evaluation of the anti-WSSV activity of coumarins, the safety doses for larvae needed to be determined. […] In contrast, the electron-withdrawing group was more toxic than the electron-donating group, with the LC50 of A5‒A8 being <5 mg/L at 72 h. […] Based on preliminary analysis of the structure-activity relationship (SAR) of similar spatial structures with different substituents of electron-donating and electron-withdrawing groups to coumarins A1, B1, and C1, we considered that […] of compounds; this provides a basis for further research.
All conventional reagents and solvents are purchased directly from commercial companies and no further purification is required. Organic solvents were purchased from Sinopharm chemical reagent Co., Ltd. and purified by distillation and moisture was excluded from the glass apparatus using CaCl2 drying tubes. Throughout this study, silica gel H (200–300 mesh; Qingdao Marine Chemical Factory, Qingdao, China) was used for the column chromatography. For thin layer chromatographic (TLC) plates, Silica gel (GF254) (Qingdao Marine Chemical Factory, Qingdao, China) were used for thin layer chromatographic (TLC) analysis, and all of the spots and bands were detected by UV irradiation (254, 365 nm). The intermediates and products were characterized by electrospray ionization mass spectrometry (TripleTOF5600þ; AB SCIEX Pte. Ltd., Boston, MA, USA), ^1H NMR and ^13C NMR (Bruker AM500 spectrometer; Bruker Corporation, Berne, Switzerland). The derivatives were dissolved in 100% dimethyl sulfoxide (DMSO; Beyotime Biotechnology, Haimen, China), stored at 4 °C prior to antiviral evaluation, and used within 6 months. For solubility, the stock solutions, at a concentration of 50 mg/mL, were sonicated for approximately 10 min to ensure that the derivatives were fully dissolved and mixed.

[4] = test system: white spot syndrome virus (WSSV); settings: buffer; cited from earlier work
[5] = test range 0.4~100 mg/L, aquacultural water, LC50 NONE

N#CC1=C(N)Oc2c(c(=O)oc3ccccc23)C1c1ccc([N+](=O)[O-])cc1 (centres unmarked) [C8]
signs of toxicity at the saturation concentration [1]: No signs of toxicity were observed | EC50 ([2]; Whispovirus xiabaidian, 72 h, read-out: EC50 (mg/L; 95% CI), median effective concentration, WSSV-infected larvae, copy number of viral genome, 72 h, 95% CI in brackets): 6.6 mg/L | inhibitory efficiency on WSSV replication ([2]; six-point dose-response, viral genome copy number in larvae): exceeded 90% | solubility in aquacultural water [3]: insoluble | lowest precipitation concentration [3, 5]: NONE (16) mg/L | lowest precipitation concentration (bracketed value in LC50 48 h column) [3, 5]: NONE (16) mg/L | lowest precipitation concentration (bracketed value in LC50 72 h column) [3, 5]: NONE (16) mg/L | half-life in aquacultural and sterilized deionized water [4]: 24 to 48 h

From article PMC8036603, “Small Molecule Inhibitors of White Spot Syndrome Virus: Promise in Shrimp Seedling Culture” (International Journal of Molecular Sciences, 2021)
